Source: patent US7868204B2, “Inhibitors of histone deacetylase” (MethylGene Inc., priority 2001, dated 2011)
Read-outs that look alike come from different tables or passages of the source.

Legend:
[1] = target: HDAC-1 (Homo sapiens, UniProt Q13547); test: Human HDAC-1 enzyme inhibition, Assay 2 (Boc-Lys(Ac)-AMC, Fluor-de-Lys fluorescence; compounds 604-617); format: biochemical; details: read-out: HDAC1 IC50
Description: Assay 2. The following protocol was also used to assay the compounds of the invention. In the assay, the buffer used was 25 mM HEPES, pH 8.0, 137 mM NaCl, 2.7 mM […], 1 mM MgCl2 and the substrate was Boc-Lys(Ac)-AMC in a 50 mM stock solution in DMSO. The enzyme stock solution was 4.08 μg/mL in buffer. The compounds were pre-incubated (2 μl in DMSO diluted to 13 μl in buffer for transfer to assay plate) with enzyme (20 μl of 4.08 μg/ml) for 10 minutes at room temperature (35 μl pre-incubation volume). The mixture was pre-incubated for 5 minutes at room temperature. The reaction was started by bringing the temperature to 37° C. and adding […] substrate. Total reaction volume was 50 μl. […] A plate was incubated in the dark for 10 minutes at room temperature before reading (λEx=360 nm, λEm=470 nm, Cutoff filter at 435 nm). Assay 2 was used to measure HDAC activity of compounds 604-617 (Table 5). HDAC activity of the remaining compounds was measured by assay 1.

[2] = test system: acetyl-H3 in T24 human bladder cancer cells; test: Histone H3 acetylation assay (anti-acetyl-H3, Amplex-Red fluorescence, normalized to Alamar Blue); format: cell-based; details: T-24, 16 h incubation, read-out: H3 Ac t24
Description: T24 human bladder cancer cells growing in culture are incubated with HDAC inhibitors for 16 h. Cell viability is determined by adding 10 μl Alamar Blue (BioSource, DAL1100). Cells are washed once with PBS and fixed with methanol precooled to −20° C. for 10 min. The cells are then washed twice in PBS. The fixed cells are blocked with 50 μl of PBS+0.1% Triton X-100. Cells are probed with rabbit-anti-acetyl-H3 (Upstate #06-599) as the primary antibody and then with goat-anti-rabbit-HRP (Sigma #A-0545) as the secondary antibody. Fluorescence is read by fluorometer at Ex: 550, Em: 610, Cutoff: 590 (Auto PMT, 15 reads/well) after addition of Amplex-Red. Fluorescence signal is normalized against cell viability derived from Alamar Blue. Maximum acetylation signal of MS-275 (fluorescence unit) is measured as Emax.

[3] = test system: HCT116 cells; test: MTT assay; format: cell-based; details: Homo sapiens
Summary of the method: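 Cells plated one day before dosing, then exposed to compound 72 h at 37 °C, 5% CO2. MTT at 0.5 mg/ml final for 4 h, solubilized in DMF/SDS buffer pH 4.7; OD converted to cell number from a standard growth curve.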

[4] = test system: acetylated histone H-4 in T24 human bladder cancer cells; test: Histone H4 acetylation in whole cells by immunoblots; format: cell-based; details: 16 h
Summary of the method: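 T24 cells were treated with HDAC inhibitors for 16 h; […] total histone protein was resolved by SDS/PAGE and immunoblotted with polyclonal anti-acetylated H4 antibody. ECL detection, with signal quantified by densitometry.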

[5] = target: T1, cloned recombinant human HDAC-1 (Homo sapiens, UniProt Q13547); test: Human HDAC-1 enzyme inhibition, Assay 1 ([3H]-acetylated histone substrate, scintillation counting); format: biochemical; details: read-out: Human HDAC-1 IC50
T1 construct: made in house; host or cells: Baculovirus insect cell expression system
Summary of the method: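 Recombinant human HDAC-1 from baculovirus-infected insect cells, preincubated with compound 30 min at 4° C. before reaction. Released [3H]-acetic acid extracted with ethyl acetate and counted by scintillation. IC50 taken from dose-response curves as concentration giving half-maximal inhibition.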

[6] = test system: HCT116 human colorectal carcinoma cells; test: Antitumor activity in HCT116 human colorectal tumor xenograft model in vivo; set-up: species or system BALB/c nude mice; details: Mus musculus, ip, HCT 116 colorectal tumor model, read-out: % Inhibition of Tumor Growth; for inhibition in vivo at 40 mg/kg: 40 mg/kg i.p.
Description: Eight to ten week old female BALB/c nude mice (Taconic Labs, Great Barrington, N.Y.) were injected subcutaneously in the flank area with 2×10^6 preconditioned HCT116 human colorectal carcinoma cells. Preconditioning of these cells was done by a minimum of three consecutive tumor transplantations in the same strain of nude mice. Subsequently, tumor fragments of approximately 30 mgs were excised and implanted subcutaneously in mice, in the left flank area, under Forene anesthesia (Abbott Labs, Geneve, Switzerland). When the tumors reached a mean volume of 100 mm^3, the mice were treated intravenously, subcutaneously, or intraperitoneally by daily injection, with a solution of the histone deacetylase inhibitor in an appropriate vehicle, such as PBS, DMSO/water, or Tween 80/water, at a starting dose of 10 mg/kg. The optimal dose of the HDAC inhibitor was established by dose response experiments according to standard protocols. Tumor volume was calculated every second day post infusion according to standard methods (e.g., Meyer et al., Int. J. Cancer 43: 851-856 (1989)). […] FIGS. 2-10 show the results of additional compounds tested.

HDAC-1, sequence (Q13547 whole entry): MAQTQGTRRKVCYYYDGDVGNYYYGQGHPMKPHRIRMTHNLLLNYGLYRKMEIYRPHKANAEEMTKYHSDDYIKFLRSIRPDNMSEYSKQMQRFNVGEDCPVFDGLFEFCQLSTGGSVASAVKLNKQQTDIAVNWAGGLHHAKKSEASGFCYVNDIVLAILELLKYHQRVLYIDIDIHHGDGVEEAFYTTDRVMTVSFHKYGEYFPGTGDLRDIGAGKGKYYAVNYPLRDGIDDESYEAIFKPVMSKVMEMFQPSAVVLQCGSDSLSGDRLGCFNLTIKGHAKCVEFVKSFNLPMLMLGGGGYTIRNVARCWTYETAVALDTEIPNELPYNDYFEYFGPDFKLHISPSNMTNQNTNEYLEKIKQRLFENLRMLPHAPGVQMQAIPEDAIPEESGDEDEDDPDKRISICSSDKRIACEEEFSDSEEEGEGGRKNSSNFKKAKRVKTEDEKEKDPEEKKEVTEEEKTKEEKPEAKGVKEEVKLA
T1 sequence (Q13547 whole entry): as above

Row | SMILES | IC50 [1] [nM] | EC50 [2] [nM] | IC50 ([3]; HCT-116, HCT116 cells) [nM] | also measured
1 | Nc1ccccc1NC(=O)c1ccc(N2CC[C@H](Oc3cccnc3)C2)cc1 [compound 606, (S)-N-(2-aminophenyl)-4-(3-(pyridin-3-yloxy)pyrrolidin-1-yl)benzamide] | 400 | 7000 | 700 | –
2 | Nc1ccccc1NC(=O)c1ccc(N2CC[C@H](Oc3ccc4c(c3)OCO4)C2)cc1 [compound 614, (S)-N-(2-aminophenyl)-4-(3-(benzo[d][1,3]dioxol-5-yloxy)pyrrolidin-1-yl)benzamide] | 100 | 1000 | 8000 | –
3 | Nc1ccccc1NC(=O)c1ccc(N2CC[C@H](Nc3ccccc3)C2)cc1 [compound 608, (S)-N-(2-aminophenyl)-4-(3-(phenylamino)pyrrolidin-1-yl)benzamide] | 200 | 200 | 300 | –
4 | Nc1ccccc1NC(=O)c1ccc(N2CC[C@@H](Nc3cccnc3)C2)cc1 [compound 605, (R)-N-(2-aminophenyl)-4-(3-(pyridin-3-ylamino)pyrrolidin-1-yl)benzamide] | 300 | 12000 | 3000 | –
5 | Nc1ccccc1NC(=O)/C=C/c1ccc(NCc2cccc(OC(F)(F)F)c2)nc1 [Cpd 98, N-(2-aminophenyl)-3-[6-(3-trifluoromethoxy-benzylamino)-pyridin-3-yl]-acrylamide] | – | – | – | EC50 ([4]; T-24, Table 5c, read-out: H4Ac (T24) EC50): 15000 nM; IC50 ([5]; Table 5c): 400 nM; IC50 ([3]; HCT-116, 72 h, Table 5c, HCT116 cells, 72 hours): 2000 nM; inhibition in vivo at 20 mg/kg ([6]; 20 mg/kg i.p.): 52%
6 | COc1ccc(CNc2ccc3cc(C(=O)Nc4ccccc4N)ccc3n2)cc1 [Cpd 87] | – | – | – | EC50 ([4]; T-24, Table 5E, read-out: H4 Ac (T24) EC50): 5000 nM; IC50 ([5]; Table 5E): 2000 nM; IC50 ([3]; HCT-116, 72 h, Table 5E, HCT116 cells, 72 hours): 1000 nM; inhibition in vivo at 40 mg/kg [6]: 30%
7 | Nc1ccccc1NC(=O)c1ccc(N2CC[C@H](Sc3ccccn3)C2)cc1 [compound 617, (S)-N-(2-aminophenyl)-4-(3-(pyridin-2-ylthio)pyrrolidin-1-yl)benzamide] | 230 | 2000 | 700 | –
8 | COc1cc(O[C@H]2CCN(c3ccc(C(=O)Nc4ccccc4N)cc3)C2)cc(OC)c1OC [compound 613, (S)-N-(2-aminophenyl)-4-(3-(3,4,5-trimethoxyphenoxy)pyrrolidin-1-yl)benzamide] | 90 | 1000 | 300 | –
9 | Nc1ccccc1NC(=O)c1ccc(N2CC[C@H](Nc3cccnc3)C2)cc1 [compound 604, (S)-N-(2-aminophenyl)-4-(3-(pyridin-3-ylamino)pyrrolidin-1-yl)benzamide] | 60 | 8000 | 800 | –
10 | Nc1nc(NCc2ccc(C(=O)Nc3ccccc3N)cc2)nc(N2CCOCC2)n1 [Cpd 9, 4-[(4-amino-6-morpholin-4-yl-[1,3,5]-triazin-2-ylamino)-methyl]-N-(2-amino-phenyl)-benzamide] | – | – | – | EC50 ([4]; T-24, Table 5a, read-out: H4Ac (T24) EC50): 5000 nM; IC50 ([5]; Table 5a): 2000 nM; IC50 ([3]; HCT-116, 72 h, Table 5a, HCT116 cells, 72 hours): 700 nM; inhibition in vivo at 40 mg/kg [6]: 51%
